Holding throughout (experiment): Cell growth and viability (neutral red / sulforhodamine B) and morphology
Holding throughout (format): cell-based, human

One assay has as its system RWEP-1 cells. On the procedure: (§1) Each product (1 to 5) was applied for 1 to 72 hours, at various concentrations. The number of cells was compared with a control, namely cells cultured in the absence of the test compound.
The RPMI-1640 medium, the fetal calf serum and the L-glutamine were supplied by Gibco BRL (Cergy Pontoise, France). The cell cultures were replaced every 5 days to ensure exponential growth. The normal human prostate cells RWEP-1 were supplied by the American Type Culture Collection (ATCC, Rockville, Md.). The cells were maintained in the form of a monolayer culture according to the usual techniques, in […] flasks, at 37° C., in an atmosphere containing 5% CO2 and at 95% humidity, in a medium free of serum and of keratinocytes, supplemented with 2.5 μg of recombinant human EGF and 25 mg of calf pituitary extract. The medium was supplied by Gibco BRL (Cergy Pontoise, France).
(§2) Five products were tested for this study and were stored protected from light, at +4° C. The β-sitosterol (product 1), obtained from Sigma Chemicals, was first dissolved in absolute ethanol, up to a final concentration of 24.1 mM. Product 2, supplied by Barry Callebaut, France, is a defatted cocoa extract containing 35.5% polyphenols and 0.081% β-sitosterol. Product 3 was reconstituted from products 1 and 2 and contained 35.5% polyphenols and 0.72% β-sitosterol. Products 4 and 5 were manufactured by Barry Callebaut, France. The composition of product 4 is unknown, and contains no β-sitosterol. Product 5 contains 35.27% polyphenols and 0.72% β-sitosterol. Products 2, 3, 4 and 5 were first dissolved in whole medium. As regards products 2, 4 and 5, the total polyphenols of the cocoa extracts originate from different countries.
(§3) Just before use, the final concentrations of products (table 1) used are prepared for the various experiments by means of stock solutions, by diluting the stock solution in whole medium. 64.2 μM of β-sitosterol is the maximum dose used in this solubility range and in the physiological range (4 to 70 μM). The absolute ethanol is at a constant concentration of 0.26% in the solvent-based control, in the negative control and in the 8 test concentrations. The ratios of the β-sitosterol and of the polyphenols for products 2, 3 and 5 are as follows: • Product 2:2:1000 • Product 3:2:100 • Product 5:2:100
(§4) The cells were inoculated on 96-well plates at an initial density of 15 000 cells/well for DU145, at an initial density of 30 000 cells/well for 22Rv1 and at an initial density of 25 000 cells/well for RWEP-1, with 200 μL of medium per well. The cell density was optimized as a function of the time required to double the population of cells, in order to obtain a significant measurement of the Optical Density (OD) and to be able to compare the various cells lines. After 24 hours, in order to ensure uniform fixing of the cells from the start of the experiments, the products were added to the cell cultures at various concentrations and at various times. After incubation with the products, the growth and viability of the cells was measured using neutral red (NR) and sulforhodamine B (SRB) combined (In Cytotox, Vandoeuvre, France). The absorption of the vital stain NR was used by the lysosomes/endosomes and by the vacuoles of the live cells as a quantitative indication of the number and viability of the cells after treatment with a chemical test. The anionic stain SRB made it possible to quantify the viable cells via measurement of the protein content of the cells.
The cytotoxicity was evaluated 1, 3, 6, 24, 48 and 72 hours after incubating the 22Rv1, RWEP-1 and DU145 cells with the products. The cells were washed with 200 μl of washing solution in order to remove the culture medium supplemented with the products. 200 μL of neutral red base medium was added and incubated with the cells at 37° C. for 3 hours. The neutral red base medium was then removed and the cells were washed twice with phosphate-buffered physiological saline (PBS). […]

A further assay has as its system 22Rv1 cells. The following applies: for IC50: 72 h, read-out: CI50 (the source's name). Here is the method: as §1
(§5) The human prostate carcinoma cells DU145 and 22Rv1 were supplied by the American Type Culture Collection (ATCC, Rockville, Md.). The DU145 cells originate from a cerebral metastasic site and are not sensitive to androgens. The 22Rv1 cells originate from a prostate carcinoma and are sensitive to androgens. The cells were maintained in the form of a monolayer culture according to the usual techniques, in […] flasks (Corning), at 37° C., in an atmosphere containing 5% CO2 and at 95% humidity, in an RPMI-1640 medium free of phenol red and supplemented with 10% of heat-inactivated fetal calf serum and 1% of L-glutamine.
as §2, §3, §4
(§6) The cytotoxicity was evaluated 1, 3, 6, 24, 48 and 72 hours after incubating the 22Rv1, RWEP-1 and DU145 cells with the products. The cells were washed with 200 μl of washing solution in order to remove the culture medium supplemented with the products. 200 μL of neutral red base medium was added and incubated with the cells at 37° C. for 3 hours. The neutral red base medium was then removed and the cells were washed twice with phosphate-buffered physiological saline (PBS). The cells were fixed for 1 minute with 200 μL of fixing solution. […]

The test system of the next assay is DU145 cells. On the procedure: as §1, §5, §2, §3, §4, §6

Like-named read-outs stand apart in the source and are kept apart here. Marks after values point to notes of the source that are not given here.

The source of these data is patent US8435576B2, “Use of cocoa polyphenols for treating a prostate hyperplasia, a specific cocoa extract and applications” (Barry Callebaut AG, priority 2005, dated 2013).

For the compound `CC[C@H](CC[C@@H](C)[C@H]1CC[C@H]2[C@@H]3CC=C4C[C@@H](O)CC[C@]4(C)[C@H]3CC[C@]12C)C(C)C` [β-sitosterol], the max. inhibition in the assay on RWEP-1 cells (24 h, RWEP1, NR) was determined as 15%^b; in the assay with RWEP-1 cells (24 h, RWEP1, SRB), 9%; in the assay with RWEP-1 cells (48 h, RWEP1, NR), 29%; in the assay on RWEP-1 cells (48 h, RWEP1, SRB) it was 48%; with RWEP-1 cells (72 h, RWEP1, NR), 11%; with RWEP-1 cells (72 h, RWEP1, SRB) it was 26%. Further, the max. inhibition turned out to be 49% in the assay with 22Rv1 cells (24 h, 22RV1, NR); 49% with 22Rv1 cells (24 h, 22RV1, SRB); 36% with 22Rv1 cells (48 h, 22RV1, NR); 47% with 22Rv1 cells (48 h, 22RV1, SRB); 11% with DU145 cells (24 h, DU145, NR); 42% in the assay with DU145 cells (24 h, DU145, SRB). The max. inhibition was 21% in the assay on DU145 cells (48 h, DU145, NR); 44% with DU145 cells (48 h, DU145, SRB); 42% in the assay with DU145 cells (72 h, DU145, NR); 40% with DU145 cells (72 h, DU145, SRB). The IC50 result was “never reached” with RWEP-1 cells (RWEP-1, between 1 and 72 hours of treatment); 17.8 µM in the assay with 22Rv1 cells (22RV1, NR); 34 µM with 22Rv1 cells (22RV1, SRB); “did not induce an IC50” with DU145 cells (DU145, short-term and long-term treatments). In the assay on 22Rv1 cells (22Rv1, 1, 3 and 6 hours of treatment), the “Inhibition of lysosomial activity or protein synthesis” value was “did not inhibit the lysosomial activity or protein synthesis”. Moreover, the Morphological alterations entry in the assay with 22Rv1 cells (22Rv1, maximum concentration, up to 48 hours) was “No significant difference in terms of density and morphology”; with DU145 cells (DU145, maximum concentration, up to 48 hours), “No significant difference was observed in terms of density and morphology”.
